Source: publication PMC4411481, “Cyclic nucleotide binding and structural changes in the isolated GAF domain of Anabaena adenylyl cyclase, CyaB2” (PeerJ, 2015)
Where two headings read alike, the source gives them in different places.

How the values were obtained:
[1] = target: T1, isolated GAFb domain of CyaB2 (residues Leu 270 to Leu 431, GST fusion) (Nostoc sp. PCC 7120 (Anabaena sp. PCC 7120), UniProt P94182); assay: Cyclic nucleotide binding assay (3H-cAMP competition), GST-GAFb
T1 sequence (P94182 270-431): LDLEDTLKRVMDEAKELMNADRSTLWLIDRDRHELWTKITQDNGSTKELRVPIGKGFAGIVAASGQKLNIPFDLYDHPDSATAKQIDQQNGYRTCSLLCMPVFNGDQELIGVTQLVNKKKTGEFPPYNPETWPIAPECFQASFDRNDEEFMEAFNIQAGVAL

[2] = target: T2, tandem GAFab domains of CyaB2 (residues S77 to L431, GST fusion) (Nostoc sp. PCC 7120 (Anabaena sp. PCC 7120), UniProt P94182); assay: biochemical; type: binding
T2 sequence (P94182 77-431): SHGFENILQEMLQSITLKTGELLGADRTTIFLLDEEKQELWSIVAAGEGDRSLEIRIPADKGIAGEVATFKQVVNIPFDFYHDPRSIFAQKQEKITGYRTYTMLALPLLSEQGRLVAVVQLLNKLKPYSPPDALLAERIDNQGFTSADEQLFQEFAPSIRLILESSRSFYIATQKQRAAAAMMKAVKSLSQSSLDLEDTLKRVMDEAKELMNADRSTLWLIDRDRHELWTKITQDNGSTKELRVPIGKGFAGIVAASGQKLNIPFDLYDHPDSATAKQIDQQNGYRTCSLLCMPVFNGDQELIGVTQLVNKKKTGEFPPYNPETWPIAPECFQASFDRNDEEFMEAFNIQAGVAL

[3] = tested on: tandem GAFab domains of CyaB2 (residues S77 to L431, GST fusion); assay: biochemical; type: binding, Anabaena sp. PCC 7120; conditions: tandem GAFab vs isolated GAFb
[4] = tested on: I308A mutant GAFb domain of CyaB2; type: binding, Anabaena sp. PCC 7120
[5] = tested on: T293A mutant GAFb domain of CyaB2; assay: Cyclic nucleotide binding assay, T293A mutant GAFb; parameters: species or system Anabaena sp. PCC 7120
[6] = tested on: GAFb sensor (GFP2-GAFb-Rluc); assay: In vitro BRET assay, GAFb sensor; type: biochemical, Anabaena sp. PCC 7120; conditions: cell lysate, 1 mM cNMP, 37 °C 10 min
PDE5 GAFa(F163A) sensor = target: T3, PDE5 GAFa(F163A) sensor (Homo sapiens, UniProt O76074, F205A); assay: In vitro BRET assay, PDE5 GAFa(F163A) sensor; type: biochemical; conditions: cell lysate, 1 mM cNMP, 37 °C 10 min
T3 construct: We used the F163A mutant GAFa domain of PDE5; expressed in transfected cells; host or cells: HEK293T lysate

[7] = tested on: GAFab sensor (GFP2-GAFab-Rluc); assay: In vitro BRET assay, GAFab sensor; type: biochemical, Anabaena sp. PCC 7120; conditions: cell lysate, 1 mM cNMP
[8] = tested on: NterGAFab sensor (GFP2-NterGAFab-Rluc); assay: In vitro BRET assay, NterGAFab sensor; type: biochemical, Anabaena sp. PCC 7120; conditions: cell lysate, 1 mM cNMP
[9] = tested on: HEK293T cells expressing the GAFb sensor; assay: Cellular BRET assay, GAFb sensor; type: cell-based, Human; conditions: 100 µM; forskolin 5 min, SNP 2 min, 37 °C
HEK293T cells = assay: Intracellular cNMP estimation by radioimmunoassay; type: cell-based, Human; conditions: 100 µM forskolin, 5 min
Method: Intracellular levels of cyclic nucleotide monophosphates (cNMP) were measured from the cells used for BRET measurements, or […] transfected and treated cells. Cells were lysed in 0.1 N HCl and cNMP was measured by radioimmunoassay as described earlier ([Bakre, […], 2000]).

[10] = tested on: CyaB1-CyaB2 fusion protein; conditions: read-out: EC50, cAMP-mediated activation of a related adenylyl cyclase domain; ref Bruder et al., 2005; cited from earlier work

T3 sequence (O76074 148-315 F205A): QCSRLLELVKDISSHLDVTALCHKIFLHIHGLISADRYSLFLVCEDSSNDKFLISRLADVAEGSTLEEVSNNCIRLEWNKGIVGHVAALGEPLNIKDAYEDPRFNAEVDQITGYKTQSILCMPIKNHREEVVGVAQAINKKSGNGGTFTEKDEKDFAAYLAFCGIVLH

Row | Compound | IC50 ([1]; isolated GAFb, ∼1 nM 3H-cAMP) [µM] | IC50 ([2]; tandem GAFab, ∼1 nM 3H-cAMP, read-out: IC50, competition with 3H-cAMP binding) [µM] | fold lower affinity compared to the isolated GAFb domain [3] [fold] | change in affinity vs wild type GAFb [4] | change in affinity vs wild type GAFb [5] | change in BRET ratio [6] | change in BRET ratio (PDE5 GAFa(F163A) sensor) | change in BRET [7] | change in BRET [8] | change in BRET ratios in live cells [9] | intracellular levels of cAMP (HEK293T cells) | Kd [1] [µM] | IC50 [2] [µM] | fold higher affinity than the isolated GAFb domain [3] [fold] | EC50 [10] [µM]
1 | Nc1nc2c(ncn2[C@@H]2O[C@@H]3COP(=O)(O)O[C@H]3[C@H]2O)c(=O)[nH]1 [cGMP, guanosine 3′, 5′—cyclic monophosphate] | 7.6 ± 1.9 | 2650 | 348 | remained unaltered | reduction in the affinity | no change in the BRET ratio | large increase in the BRET ratio | did not result in a significant alteration | did not result in a significant alteration | – | – | – | – | – | –
2 | C=C[C@@]1(C)CC(=O)[C@]2(O)[C@@]3(C)[C@@H](O)CCC(C)(C)[C@@H]3[C@H](O)[C@H](OC(C)=O)[C@@]2(C)O1 [forskolin] | – | – | – | – | – | – | – | – | – | no significant changes | increased intracellular levels | – | – | – | –
3 | Nc1ncnc2c1ncn2[C@@H]1O[C@@H]2COP(=O)(O)O[C@H]2[C@H]1O [cAMP, adenosine 3′, 5′—cyclic monophosphate] | – | – | – | significant reduction in the affinity | no change in the affinity | no change in the BRET ratio | large increase in the BRET ratio | did not result in a significant alteration | did not result in a significant alteration | – | – | 0.8 ± 0.2 | 0.05 ± 0.02 | 16 | ~1.3
